US12534472B2, “Morphic forms of trilaciclib and methods of manufacture thereof” (Pharmacosmos Holding A/S, priority 2020, dated 2026)

Tests used:
Format in all cases: physicochemical
[1] = Dynamic Vapor Sorption (DVS); conditions: for Change in Mass (%)-ref Desorption / Change in Mass (%)-ref Sorption / Change in Mass (%)-ref Hysteresis: DVS; for Change in Mass (%)-ref Desorption / Change in Mass (%)-ref Sorption: 25° C.
Experimental: Approximately, 10-20 mg of sample was placed into a mesh vapor sorption balance pan and loaded into a DVS Intrinsic dynamic vapor sorption balance by Surface Measurement Systems. The sample was subjected to a ramping profile from 40-90% relative humidity (RH) at 10% increments, maintaining the sample at each step until a stable weight had been achieved (dm/dt 0.004%, minimum step length 30 minutes, maximum step length 500 minutes) at 25° C. After completion of the sorption cycle, the sample was dried using the same procedure to 0% RH and then a second sorption cycle back to 40% RH. Two cycles were performed. The weight change during the sorption/desorption cycles were plotted, allowing for the hygroscopic nature of the sample to be determined. XRPD analysis was then carried out on any solid retained. The above technique was used to generate the images in FIG. 5, FIG. 6, FIG. 47 and FIG. 48.

[2] = Thermodynamic solubility in water at pH 4.2
Experimental: Thermodynamic solubility was carried out for Pattern 1, Pattern 2/6 mixture, Pattern 3, amorphous di-HCl salts and Pattern 7 in water at pH 4.2. All samples were prepared at 30 mg/mL. Initial observations were made. The samples were agitated at ambient temperature for ca. 24 hours. The samples were collected and observations made. Observed solids were isolated via centrifugation. The mother liquor from the filtered sample was analyzed by HPLC. The pH 4.3 solution was prepared by diluting glacial acetic acid (11.6 mL) to 100 mL in deionized water, then adding sodium acetate (1.07 g) and acetic acid solution (5.9 mL) preparing up to 500 mL with deionized water; then the pH was adjusted to 4.2. The above technique was used to generate the images in FIG. 60.

[3] = Dynamic Vapor Sorption (DVS); conditions: Cycle 3, sorption, 25° C.

Change in Mass (%)-ref Desorption ([1]; Cycle 1, desorption, target RH 0%): 0.000%
Change in Mass (%)-ref Desorption ([1]; Cycle 1, desorption, target RH 10%): 0.863%
Change in Mass (%)-ref Desorption ([1]; Cycle 1, desorption, target RH 20%): 1.274%
Change in Mass (%)-ref Desorption ([1]; Cycle 1, desorption, target RH 30%): 1.818%
Change in Mass (%)-ref Desorption ([1]; Cycle 1, desorption, target RH 40%): 2.223%
Change in Mass (%)-ref Desorption ([1]; Cycle 1, desorption, target RH 50%): 2.491%
Change in Mass (%)-ref Desorption ([1]; Cycle 1, desorption, target RH 60%): 2.727%
Change in Mass (%)-ref Desorption ([1]; Cycle 1, desorption, target RH 70%): 2.940%
Change in Mass (%)-ref Desorption ([1]; Cycle 1, desorption, target RH 80%): 3.171%
Change in Mass (%)-ref Desorption ([1]; Cycle 1, desorption, target RH 90%): 3.555%
Change in Mass (%)-ref Sorption ([1]; Cycle 1, sorption, target RH 40%): 2.516%
Change in Mass (%)-ref Sorption ([1]; Cycle 1, sorption, target RH 50%): 2.780%
Change in Mass (%)-ref Sorption ([1]; Cycle 1, sorption, target RH 60%): 2.970%
Change in Mass (%)-ref Sorption ([1]; Cycle 1, sorption, target RH 70%): 3.115%
Change in Mass (%)-ref Sorption ([1]; Cycle 1, sorption, target RH 80%): 3.288%
Change in Mass (%)-ref Sorption ([1]; Cycle 1, sorption, target RH 90%): 3.555%
Change in Mass (%)-ref Hysteresis ([1]; Cycle 1, target RH 40%): −0.292%
Change in Mass (%)-ref Hysteresis ([1]; Cycle 1, target RH 50%): −0.289%
Change in Mass (%)-ref Hysteresis ([1]; Cycle 1, target RH 60%): −0.242%
Change in Mass (%)-ref Hysteresis ([1]; Cycle 1, target RH 70%): −0.175%
Change in Mass (%)-ref Hysteresis ([1]; Cycle 1, target RH 80%): −0.117%
Change in Mass (%)-ref Desorption ([1]; Cycle 2, desorption, target RH 0%): 0.075%
Change in Mass (%)-ref Desorption ([1]; Cycle 2, desorption, target RH 10%): 0.885%
Change in Mass (%)-ref Desorption ([1]; Cycle 2, desorption, target RH 20%): 1.290%
Change in Mass (%)-ref Desorption ([1]; Cycle 2, desorption, target RH 30%): 1.711%
Change in Mass (%)-ref Desorption ([1]; Cycle 2, desorption, target RH 40%): 1.977%
Change in Mass (%)-ref Desorption ([1]; Cycle 2, desorption, target RH 50%): 2.171%
Change in Mass (%)-ref Desorption ([1]; Cycle 2, desorption, target RH 60%): 2.337%
Change in Mass (%)-ref Desorption ([1]; Cycle 2, desorption, target RH 70%): 2.510%
Change in Mass (%)-ref Desorption ([1]; Cycle 2, desorption, target RH 80%): 2.717%
Change in Mass (%)-ref Desorption ([1]; Cycle 2, desorption, target RH 90%): 3.093%
Change in Mass (%)-ref Sorption ([1]; Cycle 2, sorption, target RH 0%): 0.000%
Change in Mass (%)-ref Sorption ([1]; Cycle 2, sorption, target RH 10%): 0.831%
Change in Mass (%)-ref Sorption ([1]; Cycle 2, sorption, target RH 20%): 1.198%
Change in Mass (%)-ref Sorption ([1]; Cycle 2, sorption, target RH 30%): 1.468%
Change in Mass (%)-ref Sorption ([1]; Cycle 2, sorption, target RH 40%): 1.853%
Change in Mass (%)-ref Sorption ([1]; Cycle 2, sorption, target RH 50%): 2.092%
Change in Mass (%)-ref Sorption ([1]; Cycle 2, sorption, target RH 60%): 2.271%
Change in Mass (%)-ref Sorption ([1]; Cycle 2, sorption, target RH 70%): 2.461%
Change in Mass (%)-ref Sorption ([1]; Cycle 2, sorption, target RH 80%): 2.700%
Change in Mass (%)-ref Sorption ([1]; Cycle 2, sorption, target RH 90%): 3.093%
Change in Mass (%)-ref Hysteresis ([1]; Cycle 2, target RH 10%): 0.054%
Change in Mass (%)-ref Hysteresis ([1]; Cycle 2, target RH 20%): 0.091%
Change in Mass (%)-ref Hysteresis ([1]; Cycle 2, target RH 30%): 0.243%
Change in Mass (%)-ref Hysteresis ([1]; Cycle 2, target RH 40%): 0.124%
Change in Mass (%)-ref Hysteresis ([1]; Cycle 2, target RH 50%): 0.080%
Change in Mass (%)-ref Hysteresis ([1]; Cycle 2, target RH 60%): 0.066%
Change in Mass (%)-ref Hysteresis ([1]; Cycle 2, target RH 70%): 0.050%
Change in Mass (%)-ref Hysteresis ([1]; Cycle 2, target RH 80%): 0.018%
Change in Mass (%)-ref Sorption ([1]; Cycle 3, sorption, target RH 10%): 0.861%
Change in Mass (%)-ref Sorption ([1]; Cycle 3, sorption, target RH 20%): 1.198%
Change in Mass (%)-ref Sorption ([1]; Cycle 3, sorption, target RH 40%): 1.757%
moisture adsorbed (DVS) ([1]; at 40% RH, listed as Pattern 3 scale-up): 2.5 wt %
moisture adsorbed (DVS) ([1]; at 60% RH): 3.1 wt %
mass increase by DVS ([1]; at 90% RH): ca. 4%
moisture adsorbed (DVS) ([1]; at 90% RH, listed as Pattern 3 scale-up): 3.5 wt %
mass increase by DVS ([1]; between 0% and 90% RH): 4%
Observations at T = 24 hours ([2]; 30 mg/mL in water at pH 4.2, agitated at ambient temperature ca. 24 hours): Yellow solution
Observations at T = 0 hours ([2]; 30 mg/mL in water at pH 4.2, ambient temperature, T = 0 hours): Yellow solution (dissolved
Change in Mass (%)-ref Sorption ([3]; target RH 0%): 0.075%
Change in Mass (%)-ref Sorption ([3]; target RH 30%): 1.443%
SMILES: CN1CCN(c2ccc(Nc3ncc4cc5n(c4n3)C3(CCCCC3)CNC5=O)nc2)CC1 [Pattern 3, 2′-((5-(4-methylpiperazin-1-yl)pyridin-2-yl)amino)-7′,8′-dihydro-6′H-spiro[cyclohexane-1,9′-pyrazino[1′,2′:1,5]pyrrolo[2,3-d]pyrimidin]-6′-one]
